Columns and labels:
[1] = test system: PBMCs from HIV-1-infected HLA-C*12:02+ individuals; experiment: ex vivo IFN-γ ELISpot assay; assay type: cell-based, human; conditions: for number of individuals with T cell response to the peptide: of 20 chronically HIV-1-infected HLA-C*12:02+ Japanese individuals, peptide 1 μM, positive >100 spots/10^6 PBMCs; for average magnitude of the T cell responses in individuals recognizing the epitope: ex vivo ELISpot, 20 HLA-C*12:02+ individuals screened, responders only
Description: Peripheral blood mononuclear cells (PBMCs) were separated from whole blood and stored at −80°C. ELISpot assays were performed as previously described ([52]). […] The plates were then incubated for 16 h at 37°C and subsequently washed with PBS before the addition of biotinylated anti-IFN-γ mAb (Mabtech) at 1 μg/ml. After the plates had been incubated at room temperature for 90 min, they were washed with PBS and then incubated with streptavidin-conjugated alkaline phosphatase (Mabtech) for 60 min at room temperature. Following washes with PBS, individual cytokine-producing cells were visualized as dark spots after a 20-min reaction with 5-bromo-4-chloro-3-indolyl phosphate and nitroblue tetrazolium in the presence of an alkaline phosphatase-conjugated substrate (Bio-Rad). The spots were counted with an Eliphoto-Counter (Minerva Teck). The number of spots was calculated per 10^6 PBMCs. One hundred spots per 10^6 PBMCs were defined as a positive response, as described previously ([52]).

[2] = test system: CD8+ T cells; experiment: intracellular cytokine staining (ICS) assay with peptide-expanded bulk T cells; assay type: cell-based, human; conditions: peptide-expanded bulk T cells from responder KI-1407 (Env-RL9) or KI-1394 (Vif-DY9); IFN-γ ICS; words
Description: PBMCs from HIV-1-infected individuals were expanded by culture with each HIV-1 peptide for 2 weeks. .221-C1202 cells prepulsed with each HIV-1 peptide or .221-C1202 cells infected with HIV-1 NL4-3 were added to a 96-well plate together with bulk-cultured T cells, and the cells were incubated for 4 h at 37°C with brefeldin A (10 μg/ml). The cells were then stained with peridinin chlorophyll protein (PerCP)-labeled anti-CD3 mAb (BioLegend), phycoerythrin (PE)-labeled anti-CD4 mAb (BioLegend), and allophycocyanin (APC)-labeled anti-CD8 mAb (Dako) and subsequently fixed with 4% paraformaldehyde and incubated in permeabilization buffer (0.1% saponin–10% FBS–PBS). Thereafter, the cells were stained with FITC-labeled anti-IFN-γ mAb (BioLegend). Staining data were acquired on a FACSCanto II instrument (BD Biosciences) and analyzed using FlowJo 10.5.3 software.

[3] = biological target: HLA-C*12:02 (Homo sapiens, UniProt P10321, A176E/A330V/C350S/D114A/D33Y/L171W/L180W/L218V/M285V/M309V/M331V/P208H/Q277E/Q291P/S123Y/S297R/S48A/T329A/T363A/V319A/V328M); experiment: HLA class I stabilization assay using RMA-S-C1202 cells; assay type: cell-based; conditions: for binding to HLA-C*12:02 at higher peptide concentration / binding to HLA-C*12:02 (stabilization of surface HLA expression, expression index): RMA-S-C1202 cells, result in words; for binding to HLA-C*12:02 at higher peptide concentration: peptide 100 to 300 μM; for binding to HLA-C*12:02 (stabilization of surface HLA expression, expression index): peptide 0.1 to 100 μM, pulsed 26°C 1 h then 37°C 3 h, DT-9 staining, flow cytometry; for affinities of binding to HLA-C*12:02, Nef-MY9 compared with Nef-MY10: data not shown, words
Description: The affinity of peptide binding to HLA-C*12:02 was examined using RMA-S-C1202 cells as previously described ([67]). Briefly, RMA-S-C1202 cells were cultured at 26°C for 16 h and then pulsed with peptides at 26°C for 1 h and subsequently incubated at 37°C for 3 h. Staining of cell surface HLA-C molecules was performed with DT-9, an HLA-C-specific monoclonal antibody (mAb) (a gift from Mary Carrington, NIH), and fluorescein isothiocyanate (FITC)-conjugated sheep anti-mouse IgG (Jackson ImmunoResearch). Staining data were acquired on a FACSCanto II instrument (BD Biosciences) and analyzed using FlowJo 10.5.3 software. Relative HLA expression was calculated as the ratio of the mean fluorescence intensity (MFI) of peptide-pulsed RMA-S-C1202 cells to that of control (non-peptide-pulsed) cells kept at 26°C.

[4] = biological target: HLA-C*12:02 heavy chain and β2-microglobulin (Homo sapiens, UniProt P10321, A176E/A330V/C350S/D114A/D33Y/L171W/L180W/L218V/M285V/M309V/M331V/P208H/Q277E/Q291P/S123Y/S297R/S48A/T329A/T363A/V319A/V328M); experiment: peptide/HLA refolding assay analyzed by FPLC; assay type: binding; conditions: for refolded peptide/HLA-C*12:02/β2m complex FPLC peak Height: heavy chain 20 μM, β2m 2 μM, peptide 85 μM, 48 h at 4°C, Superdex 75, Fig. 2d; for refolding with HLA-C*12:02 heavy chain and β2m: low-temperature refolding, FPLC, result in words
Description: Refolding of peptides with the HLA heavy chain and β2m was performed as previously described ([74]). Briefly, HLA-C*12:02 heavy chain and β2m were overexpressed in Escherichia coli as inclusion bodies and solubilized with 8 M urea. Before refolding, only β2m was refolded and purified with Superdex 75 pg 26/600 (GE Healthcare) chromatography, and the solubilized HLA heavy chain was treated with 6 M guanidine hydrochloride at 4°C overnight. The dissolved HLA heavy chain, purified monomer β2m, and peptide (final concentrations of 20 μM, 2 μM, and 85 μM, respectively) were diluted in 10 ml of refolding buffer (100 mM Tris-HCl [pH 8.0], 400 mM L-arginine, 2 mM EDTA-Na, 5 mM reduced L-glutathione, and 0.5 mM oxidized L-glutathione). After 48 h of slow stirring at 4°C, the peptide–HLA-C complex was then concentrated and purified by Superdex 75 pg 26/600 (GE Healthcare) chromatography.

[5] = test system: CD8+ T cells; conditions: comparison Nef-MY9 vs Nef-MY10; previous study; cited from earlier work
From the text: In addition to Nef-VY9, which was previously reported as immunodominant HLA-C*12:02-restricted epitope MY9 ([52], [53]), the C-terminally extended Nef-VF10 peptide (VARELHPEYF) was also among the HIV-1 peptides identified here. […] (Nef-MY9) much more efficiently than […]Y (Nef-MY10) ([52]), despite the fact that the affinities of ...

| Sequence | number of individuals with T cell response to the peptide [1] | HLA restriction of T cell response: recognition of peptide-prepulsed 721.221 cells expressing single HLA alleles [2] | binding to HLA-C*12:02 at higher peptide concentration [3] | refolded peptide/HLA-C*12:02/β2m complex FPLC peak Height [4] | refolding with HLA-C*12:02 heavy chain and β2m [4] | average magnitude of the T cell responses in individuals recognizing the epitope [1] | binding to HLA-C*12:02 (stabilization of surface HLA expression, expression index) [3] | affinities of binding to HLA-C*12:02, Nef-MY9 compared with Nef-MY10 [3] | recognition by PBMCs expanded in vitro with a peptide cocktail including MARELHPEYY [5] |
| --- | --- | --- | --- | --- | --- | --- | --- | --- | --- |
| DAKLVITTY [Vif-DY9, HIV-1 Vif 61–69 peptide …] | 1 | higher-magnitude response to Vif-DY9-pulsed HLA-B*35:01-expressing cells than to Vif-DY9-pulsed HLA-C*12:02-expressing cells | – | – | – | – | – | – | – |
| FLGKIWPSH [Gag-FH9, HIV-1 Gag 433–441 peptide …] | – | – | did not exhibit detectable binding | 2.27 mAU | shown to refold with HLA-C*12:02 heavy chain and β2m molecules | – | – | – | – |
| ILKEPVHGVYY [Pol-IY11, HIV-1 Pol 464–474 peptide […]] | 5/20 | – | – | 4.88 mAU | shown to refold with HLA-C*12:02 heavy chain and β2m molecules | 130 SFC/10^6 PBMCs | exhibited affinity for HLA-C*12:02 molecules | – | – |
| KGALDLSHF [Nef-KF9, HIV-1 Nef 82–90 peptide; synthesized as …] | – | – | did not exhibit detectable binding | 4.48 mAU | shown to refold with HLA-C*12:02 heavy chain and β2m molecules | – | – | – | – |
| LGKIWPSH [Gag-LH8, HIV-1 Gag 434–441 peptide LGKIWPSH] | – | – | did not exhibit detectable binding | 6.41 mAU | shown to refold with HLA-C*12:02 heavy chain and β2m molecules | – | – | – | – |
| MARELHPEY [Nef-MY9, reference compound] | 5/20 | – | – | – | complex of HLA-C*12:02, peptide, and β2m was generated | 167 SFC/10^6 PBMCs | exhibited affinity for HLA-C*12:02 molecules | similar | much more efficiently than […] (Nef-MY10) |
| MARELHPEYY [Nef-MY10, […], consensus version of Nef-VF10, reference compound] | – | – | – | – | – | – | – | similar | – |
| MSQVTNSATIM [Gag-MM11, HIV-1 Gag 367–377 peptide eluted from HLA-C*12:02; tested as clade B consensus […]] | – | – | did not exhibit detectable binding | 3.51 mAU | shown to refold with HLA-C*12:02 heavy chain and β2m molecules | – | – | – | – |

— article PMC6694829, “Identification of Immunodominant HIV-1 Epitopes Presented by HLA-C*12:02, a Protective Allele, Using an Immunopeptidomics Approach” (Journal of Virology, 2019)
